Test results taken from PubChem BioAssay (NCI).
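1) Cells in 96-well plates. 2) Compound, 48 h, 5 concentrations. 3) Linear interpolation between surrounding doses. 4) Unreached endpoint = highest concentration. TGI: total growth inhibition.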

Columns and labels:
Assay in all cases: DTP human tumour cell line panel, 48 h
BT-549 breast = test system: BT-549 breast
T-47D breast = test system: T-47D breast
OVCAR-8 ovarian = test system: OVCAR-8 ovarian
SN12C renal = test system: SN12C renal
UACC-62 melanoma = test system: UACC-62 melanoma
MDA-N = test system: MDA-N
SK-MEL-28 melanoma = test system: SK-MEL-28 melanoma
PC-3 prostate = test system: PC-3 prostate
MDA-MB-435 = test system: MDA-MB-435
A549 NSCLC = test system: A549 NSCLC
MALME-3M melanoma = test system: MALME-3M melanoma
HCT-116 colon = test system: HCT-116 colon
TK-10 renal = test system: TK-10 renal
SK-MEL-5 melanoma = test system: SK-MEL-5 melanoma
IGROV1 ovarian = test system: IGROV1 ovarian
SNB-19 CNS = test system: SNB-19 CNS
UO-31 renal = test system: UO-31 renal

Measured: TGI

COc1ccc(C(C#N)NCCCCCCNC(C#N)c2ccc(OC)cc2)cc1 (stereo not given)
> 100 µM: all assays above

CC1=C(C(=O)Nc2ccccc2)C(c2ccc(C)o2)C(C#N)=C(SCc2ccccc2)N1 (stereo not given)
> 92.9 µM: MDA-N
24.6 µM: MDA-MB-435
> 100 µM: all other assays above

O=c1c(O)c(-c2cc(O)c(O)cc2O)oc2cc(O)c(C3OC(CO)C(O)C(O)C3O)c(O)c12 (stereo not given)
not listed: MALME-3M melanoma | SK-MEL-5 melanoma
> 100 µM: all other assays above

CCCC#CC(O)(C(=O)OC1CCN(C)CC1)C1CCCCC1 (stereo not given)
> 100 µM: all assays above

c1ccc(/N=C2\c3ccccc3CN2c2ccccn2)nc1
77.2 µM: T-47D breast
not listed: MALME-3M melanoma
> 100 µM: all other assays above

CSc1nncc2[nH]cnc12
not listed: MALME-3M melanoma
> 100 µM: all other assays above

Cc1ccc(Nc2sc(C)cc2C#N)c([N+](=O)[O-])c1
not listed: TK-10 renal | SK-MEL-5 melanoma | IGROV1 ovarian
> 100 µM: all other assays above

CCOC(=O)c1cc(=O)oc2c1N(C)c1ncccc1N2
not listed: MALME-3M melanoma | SK-MEL-5 melanoma | IGROV1 ovarian
> 100 µM: all other assays above

CCN(CC)CCSc1nc2c(c(=N)n1-c1ccccc1)c(=S)n(-c1ccccc1)c(=S)n2-c1ccccc1
11.4 µM: SK-MEL-5 melanoma
3.16 µM: UACC-62 melanoma
6.55 µM: MDA-N
3.29 µM: SN12C renal
3.17 µM: TK-10 renal
3.18 µM: MALME-3M melanoma
16.5 µM: SK-MEL-28 melanoma
3.54 µM: OVCAR-8 ovarian
5.98 µM: BT-549 breast
3.32 µM: PC-3 prostate
4.77 µM: A549 NSCLC
3.24 µM: IGROV1 ovarian
9.03 µM: T-47D breast
3.77 µM: MDA-MB-435
4.69 µM: HCT-116 colon
40.6 µM: SNB-19 CNS

COc1cc(/C=C/C(=O)N[C@@H]2C(=O)N3[C@@H]2SC(C)(C)[C@@H]3C(=O)O)cc(OC)c1OC
not listed: MALME-3M melanoma | IGROV1 ovarian
> 100 µM: all other assays above

CCOC(=O)/C=C(\N=P(c1ccccc1)(c1ccccc1)c1ccccc1)C(F)(F)C(F)(F)C(F)(F)C(F)(F)C(F)(F)F
not listed: OVCAR-8 ovarian
> 100 µM: all other assays above

O=c1c(-c2ccccc2Cl)coc2cc(F)ccc12
48.5 µM: BT-549 breast
25 µM: MDA-N
73.6 µM: UACC-62 melanoma
4.31 µM: MDA-MB-435
51.5 µM: IGROV1 ovarian
not listed: MALME-3M melanoma
> 100 µM: all other assays above

Cc1ccc(Nc2nc(=O)[nH]c(=O)[nH]2)cc1N=[N+]=[N-]
not listed: SK-MEL-28 melanoma | PC-3 prostate
> 100 µM: all other assays above

O=C1OC(C2OC(=O)c3cc(O)c(O)c(O)c3-c3c(O)c(O)c4oc(=O)c5c(c(O)c(O)c6oc(=O)c3c4c65)-c3c(cc(O)c(O)c3O)C(=O)OCC2O)C2OC(=O)c3c(c(O)c(O)c(O)c3[C@H]2O)-c2c1cc(O)c(O)c2O (stereo not given in full)
33.9 µM: SK-MEL-5 melanoma
81.9 µM: UO-31 renal
36.4 µM: SN12C renal
38.8 µM: HCT-116 colon
80.1 µM: T-47D breast
56.5 µM: UACC-62 melanoma
42.3 µM: MDA-MB-435
53.8 µM: MDA-N
47.7 µM: OVCAR-8 ovarian
not listed: TK-10 renal
> 100 µM: all other assays above
